Measured values taken from patent US20150315188A1, “COMPOUNDS AND METHODS FOR TREATMENT OF HYPERTENSION” (MEDIVATION TECHNOLOGIES, INC., priority 2012, published 2015).

Experiments:
[1] = molecular target: T1, rat adrenergic α1B receptor (Rattus norvegicus, UniProt P15823); test: Radioligand binding, adrenergic α1B (Protocol Group A); details: 0.1 μM compound, [3H]Prazosin; for inhibition at 0.1 µM: read-out: percent inhibition of specific binding, Adrenergic α1B; for percent inhibition of specific binding, Adrenergic α1B: 0.1 µM
T1 construct: rat adrenergic α1B receptor obtained from Wistar Rat liver; from tissue; host or cells: Wistar rat liver
T1 sequence (P15823 1-515): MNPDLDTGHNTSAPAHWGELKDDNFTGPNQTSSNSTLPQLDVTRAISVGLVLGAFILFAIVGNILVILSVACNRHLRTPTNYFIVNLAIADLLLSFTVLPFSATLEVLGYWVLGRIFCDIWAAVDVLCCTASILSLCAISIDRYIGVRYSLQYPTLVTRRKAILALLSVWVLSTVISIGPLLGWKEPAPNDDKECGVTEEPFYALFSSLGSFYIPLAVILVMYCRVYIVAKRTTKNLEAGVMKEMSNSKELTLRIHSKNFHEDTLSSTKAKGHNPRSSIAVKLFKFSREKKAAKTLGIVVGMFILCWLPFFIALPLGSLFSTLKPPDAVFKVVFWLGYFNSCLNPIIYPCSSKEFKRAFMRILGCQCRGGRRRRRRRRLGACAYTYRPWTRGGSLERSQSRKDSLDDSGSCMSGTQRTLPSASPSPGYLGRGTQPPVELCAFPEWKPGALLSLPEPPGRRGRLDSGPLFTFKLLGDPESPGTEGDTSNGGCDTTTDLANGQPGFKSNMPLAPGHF
Procedure: To evaluate in radioligand binding assays the activity of compounds of the invention, rat adrenergic α1B receptor obtained from Wistar Rat liver (Garcia-S'ainz, J. et al, Biochem. Biophys. Res. Commun. 186:760, 1992; Michel, A. et al, Br. J. Pharmacol. 98:883, 1989) in a modified Tris-HCl buffer (50 mM Tris-HCl buffer, pH 7.4, 0.5 mM EDTA) was used. Compounds of the invention were incubated with 0.25 nM [^3H]Prazosin for 60 min at 25° C. Non-specific binding was estimated in the presence of 10 μM phentolamine. Receptor proteins were filtered and washed, the filters were then counted to determine [^3H]Prazosin specifically bound. Compounds were screened at 1 μM or lower, using 1% DMSO as vehicle. Compounds of the invention were tested in this biochemical assay and percent inhibition of specific binding was determined. Biochemical assay results are presented as the percent inhibition of specific binding in Table B1a.

[2] = molecular target: T2, Human adrenergic α2B receptor (Homo sapiens, UniProt P18089); test: Radioligand binding, adrenergic α2B (Protocol Group A); set-up: expressed in transfected cells; host or cells: CHO-K1; details: 0.03 μM compound, [3H]Rauwolscine; for inhibition at 0.03 µM: read-out: percent inhibition of specific binding, Adrenergic α2B; for percent inhibition of specific binding, Adrenergic α2B: 0.03 µM
T2 sequence (P18089 1-450): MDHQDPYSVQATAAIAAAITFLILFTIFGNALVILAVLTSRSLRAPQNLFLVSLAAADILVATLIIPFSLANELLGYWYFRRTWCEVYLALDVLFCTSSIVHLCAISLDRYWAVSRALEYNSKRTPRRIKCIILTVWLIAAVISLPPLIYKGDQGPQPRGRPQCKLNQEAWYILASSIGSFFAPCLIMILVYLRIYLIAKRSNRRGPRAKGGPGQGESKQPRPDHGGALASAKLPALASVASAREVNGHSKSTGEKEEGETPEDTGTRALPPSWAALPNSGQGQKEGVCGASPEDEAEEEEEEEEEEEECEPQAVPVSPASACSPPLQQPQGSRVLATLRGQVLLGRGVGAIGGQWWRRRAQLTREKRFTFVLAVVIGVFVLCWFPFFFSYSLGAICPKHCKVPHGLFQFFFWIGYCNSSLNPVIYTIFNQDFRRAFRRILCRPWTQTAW
Procedure: To evaluate in radioligand binding assays the activity of compounds of the invention, human recombinant adrenergic α2B receptor expressed in Chinese hamster ovary (CHO) K1 cells (Uhlen, S. et al, Eur. J. Pharmacol. 343(1):93, 1998) in a modified Tris-HCl buffer (50 mM Tris-HCl, pH 7.4, 12.5 mM MgCl2, 1 mM EDTA, 0.2% BSA) was used. Compounds of the invention were incubated with 2.5 nM [3H]Rauwolscine for 60 min at 25° C. Non-specific binding was estimated in the presence of 10 μM Prazosin. Receptor proteins were filtered and washed, the filters were then counted to determine [3H]Rauwolscine specifically bound. Compounds were screened at 1 μM or lower, using 1% DMSO as vehicle. Compounds of the invention were tested in this biochemical assay and percent inhibition of specific binding was determined. Biochemical assay results are presented as the percent inhibition of specific binding in Table B1a.

[3] = molecular target: T3, Human adrenergic α2A receptor (Homo sapiens, UniProt P08913); test: Radioligand binding, adrenergic α2A (Protocol Group A); set-up: expressed in transfected cells; host or cells: insect Sf9 cells; details: 0.1 μM compound; for inhibition at 0.1 µM: [3H]MK-912, read-out: percent inhibition of specific binding, Adrenergic α2A; for percent inhibition of specific binding, Adrenergic α2A: [3H]MK-912, 0.1 µM
T3 sequence (P08913 1-465): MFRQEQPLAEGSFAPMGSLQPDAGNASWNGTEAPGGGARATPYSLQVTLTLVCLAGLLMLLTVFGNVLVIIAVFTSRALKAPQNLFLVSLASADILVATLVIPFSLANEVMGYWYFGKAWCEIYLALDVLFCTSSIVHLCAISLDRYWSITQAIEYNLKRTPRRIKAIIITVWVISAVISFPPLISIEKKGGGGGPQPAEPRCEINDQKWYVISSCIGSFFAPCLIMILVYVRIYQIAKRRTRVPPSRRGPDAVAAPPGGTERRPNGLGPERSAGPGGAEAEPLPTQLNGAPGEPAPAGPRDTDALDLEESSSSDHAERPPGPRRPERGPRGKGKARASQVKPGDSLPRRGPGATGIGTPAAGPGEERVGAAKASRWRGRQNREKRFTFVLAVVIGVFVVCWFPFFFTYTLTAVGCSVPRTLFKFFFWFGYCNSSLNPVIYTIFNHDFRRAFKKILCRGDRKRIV
Procedure: To evaluate in radioligand binding assays the activity of compounds of the invention, human recombinant adrenergic α2A receptor expressed in insect Sf9 cells (Uhlen, S. et al, J. Pharmacol. Exp. Ther. 271:1558, 1994) in a modified Tris-HCl buffer (50 mM Tris-HCl, pH 7.4, 12.5 mM MgCl2, 2 mM EDTA) was used. Compounds of invention were incubated with 1 nM [^3H]MK-912 for 60 min at 25° C. MK912 is (2S-trans)-1,3,4,5′,6,6′,7,12b-octahydro-1′,3′-dimethyl-spiro[2H-benzofuro[2,3-a]quinolizine-2,4′(1′H)-pyrimidin]-2′(3′H)-one hydrochloride. Non-specific binding was estimated in the presence of 10 μM WB-4101 (2-(2,6-Dimethoxyphenoxyethyl)aminomethyl-1,4-benzodioxane hydrochloride). Receptor proteins were filtered and washed, the filters were then counted to determine [^3H]MK-912 specifically bound. Compounds were screened at 1 μM or lower, using 1% DMSO as vehicle. Compounds of the invention were tested in this biochemical assay and percent inhibition of specific binding was determined. Biochemical assay results are presented as the percent inhibition of specific binding in Table B1a.

| inhibition at 0.1 µM [1] [%] | inhibition at 0.03 µM [2] [%] | inhibition at 0.1 µM [3] [%] | percent inhibition of specific binding, Adrenergic α1B [1] [%] | percent inhibition of specific binding, Adrenergic α2B [2] [%] | Compound | percent inhibition of specific binding, Adrenergic α2A [3] [%] |
| --- | --- | --- | --- | --- | --- | --- |
|  |  |  | −5 | 16 | Cc1ccc(C(F)Cn2c3c(c4cccnc42)C2CCCN2CC3)cn1 (single isomer, unassigned) [10b] | −1 |
|  |  |  | 27 | 78 | Cc1ccc2c(c1)c1c(n2CC(OC(=O)N2CCCC2)c2ccncc2)CCN(C)C1 (stereo not drawn) [compound 4, 2-(2,8-dimethyl-3,4-dihydro-1H-pyrido[4,3-b]indol-5(2H)-yl)-1-(pyridin-4-yl)ethyl pyrrolidine-1-carboxylate] | 33 |
|  |  | 21 | 11 | 39 | Cc1ccc2c(c1)c1c(n2CC(OC(=O)N2CCCC2)c2ccncc2)CCN(C)C1 (single isomer, unassigned) [4a] |  |
| 99 | 108 | 93 |  |  | Cc1ccc2c(c1)c1c(n2/C=C/c2ccncc2)CCN2CCCC12 (stereo not drawn) [Compound No. 7, (E)-10-methyl-7-(2-(pyridin-4-yl)vinyl)-2,3,5,6,7,11c-hexahydro-1H-indolizino[7,8-b]indole] |  |
| 61 | 93 | 29 |  |  | Cc1ccc2c(c1)c1c(n2CC(C)(O)c2ccc(F)nc2)CCN2CCCC12 (stereo not drawn) [6b] |  |

The next lines start with the molecule.

| Compound | inhibition at 0.1 µM [1] [%] | inhibition at 0.03 µM [2] [%] | inhibition at 0.1 µM [3] [%] | percent inhibition of specific binding, Adrenergic α1B [1] [%] | percent inhibition of specific binding, Adrenergic α2B [2] [%] | percent inhibition of specific binding, Adrenergic α2A [3] [%] |
| --- | --- | --- | --- | --- | --- | --- |
| Cc1ccc2c(c1)c1c(n2CCc2cncc(S(C)(=O)=O)c2)CCN(C)C1 [Compound No. 1, 2,8-dimethyl-5-(2-(5-(methylsulfonyl)pyridin-3-yl)ethyl)-2,3,4,5-tetrahydro-1H-pyrido[4,3-b]indole] | 18 | 64 | 3 |  |  |  |
| c1cncc(CCn2c3c(c4ccccc42)C2CCCN2CC3)c1 (single isomer, unassigned) [2a] |  |  |  | 28 | 102 | 31 |
| Cc1ccc2c(c1)c1c(n2CC(OC(N)=O)c2ccncc2)CCN(C)C1 (stereo not drawn) [compound 8, 2-(2,8-dimethyl-3,4-dihydro-1H-pyrido[4,3-b]indol-5 (2H)-yl)-1-(pyridin-4-yl)ethyl carbamate] | 1 | 42 | 11 |  |  |  |
| Cc1ccc2c(c1)c1c(n2CC(OCCCC(=O)O)c2ccncc2)CCN(C)C1 (stereo not drawn) [compound 3, 4-(2-(2,8-dimethyl-3,4-dihydro-1H-pyrido[4,3-b]indol-5 (2H)-yl)-1-(pyridin-4-yl)ethoxy)butanoic acid] | -5 | 7 | 5 |  |  |  |
| c1cncc(CCn2c3c(c4ccccc42)C2CCCN2CC3)c1 (single isomer, unassigned) [2b] |  |  |  | 4 | 1 | 13 |
| Cc1ccc2c(c1)c1c(n2C(CC(C)(C)C)C(=O)c2ccncc2)CCN(C)C1 (stereo not drawn) [compound 9, 2-(2,8-dimethyl-3,4-dihydro-1H-pyrido[4,3-b]indol-5 (2H)-yl)-4,4-dimethyl-1-(pyridin-4-yl)pentan-1-one] | 77 | 107 | 85 |  |  |  |
| Cc1ccc2c(c1)c1c(n2CC(OC(=O)N2CCN(C)CC2)c2ccncc2)CCN(C)C1 (stereo not drawn) [compound 5, 2-(2,8-dimethyl-3,4-dihydro-1H-pyrido[4,3-b]indol-5 (2H)-yl)-1-(pyridin-4-yl)ethyl 4-methylpiperazine-1-carboxylate] | 5 | 13 | 10 |  |  |  |
